# Data from paper PMC6979384, “Characterization of the plant homeodomain (PHD) reader family for their histone tail interactions” (Epigenetics & Chromatin, 2020).
# Legend:
# Type in all cases: binding, human
# KDM5B (PHD1) = assay: Peptide pulldown (immunoblot); settings: n = 2
# Protocol: (§1) The 31 GST-tagged PHD readers identified in the PHD finger domain array were expressed and purified as previously. Histone peptide arrays and peptide pulldown assays were conducted as recently described (specifically, the optimized protocol from Petell et al. for the former).
# (§2) Figure S5. Peptide Pulldowns with KDM7A and KDM5B (PPC2W2). Representative immunoblot analysis of peptide pulldowns for the PHD fingers of KDM7A and KDM5B (PHD1) with the peptides indicated on the top of the image (n=2).
# DIDO1 = assay: dCypher AlphaScreen Phase B (full peptide screen); settings: reader 0.1 nM, 100 nM peptide, 23 °C, n = 2
# Protocol: (§3) X-axes are log(protein concentration (M)) at constant peptide concentration (100 nM); Y-axes are AlphaScreen counts, representing relative strength of binding (n = 2; error bars are S.D.). i Heat map represents relative binding to H3 N-terminal peptides (left) by PHD-containing GST-tagged proteins (top) using the dCypher AlphaScreen platform. Protein concentrations can be found in Additional file 5: Table S4. Binding strength is indicated by color gradient from green to yellow (stronger to weaker). […] Alpha counts (n = 2) were normalized individually for each protein to the highest signal for each respective assay. For full dCypher peptide screen data, see Additional file 4: Table S3
# (§4) Once the optimal protein concentration ranges for each of the eight readers were determined, we conducted the full dCypher peptide screen (293 histone peptides) (Fig. 3i; Additional file 4: Table S3).
# (§5) The dCypher peptide screen assay was performed as previously described. Briefly, 5 μL of GST-tagged reader domains (optimal protein concentration for library screening determined by initial binding curves to candidate peptides) were incubated with 5 μL of 400 nM (100 nM Final) biotinylated histone peptides (EpiCypher) for 30 min at 23 °C in 1× AlphaLISA Epigenetics buffer + epigenetics buffer supplement (PerkinElmer, AL1008) in a 384-well plate. A 10 μL mix of 5 µg/mL (2.5 μg/mL final) glutathione Acceptor beads (PerkinElmer, AL109M) and 10 μg/mL (5 μg/mL final) streptavidin Donor beads (PerkinElmer, 6760002) was prepared in 1× [Epigenetics buffer + supplement] and added to each well. Plates were incubated at 23 °C in subdued lighting for 60 min and AlphaLISA signal measured on a PerkinElmer 2104 EnVision (680 nm laser excitation, 570 nm emission filter ± 50 nm bandwidth).
# (§6) Supplementary file 13072_2020_328_MOESM4_ESM.xlsx: Additional file 4: Table S3. dCypher Results. Excel Tab Peptide Phase A is a compiled set of binding data: chromatin reader titration vs. several peptide targets. Data is presented as raw Alpha counts in duplicates at each concentration tested. Excel Tab Peptide Phase B is a compiled set of binding data: chromatin reader at optimized concentrations vs. entire 293 peptide library. Data is presented as the average and standard deviation of duplicates. […] Key: red = strong binding; blue = weak/no binding.
# MLL5 = assay: dCypher AlphaScreen Phase B (full peptide screen); settings: reader 0.02 nM, 100 nM peptide, 23 °C, n = 2
# Protocol: as §3, §4, §5, §6
# KDM7A = assay: dCypher AlphaScreen Phase B (full peptide screen); settings: reader 0.15 nM, 100 nM peptide, 23 °C, n = 2
# Protocol: as §3, §4, §5, §6
# KDM7A PHD finger = assay: Peptide pulldown (immunoblot); settings: n = 2
# Protocol: as §1, §2
# DPF2 (PPC2W2) = assay: dCypher AlphaScreen Phase B (full peptide screen); settings: reader 0.1 nM, 100 nM peptide, 23 °C, n = 2
# Protocol: as §3, §4, §5, §6
# CHD4 (PPCC) = assay: dCypher AlphaScreen Phase A (reader titration); settings: 100 nM peptide, 23 °C, n = 2
# Protocol: (§7) Fig. 3 dCypher histone peptide-binding assays define the PTM recognition preference of PHD proteins with high sensitivity. a–h Binding curves to determine optimal reader protein concentration for full peptide library screening on the dCypher® AlphaScreen® platform (see “Methods”). X-axes are log(protein concentration (M)) at constant peptide concentration (100 nM); Y-axes are AlphaScreen counts, representing relative strength of binding (n = 2; error bars are S.D.). i Heat map represents relative binding to H3 N-terminal peptides (left) by PHD-containing GST-tagged proteins (top) using the dCypher AlphaScreen platform. Protein concentrations can be found in Additional file 5: Table S4. Binding strength is indicated by color gradient from green to yellow (stronger to weaker). The asterisk (*) by MLL5 signifies its general preference for H3K4 methylation. Alpha counts (n = 2) were normalized individually for each protein to the highest signal for each respective assay. For full dCypher peptide screen data, see Additional file 4: Table S3
# (§8) We next employed a highly sensitive proximity-based AlphaScreen histone peptide assay (dCypher®) to provide a third and orthogonal approach to analyzing the histone binding preferences for a subset of the 31 PHD proteins with respect to various histone tail PTMs. In this assay, biotinylated peptides are bound to streptavidin “donor” beads and the GST-tagged reader domains bound to Glutathione “acceptor” beads. […] Initial binding assays were conducted for each fusion protein using three peptides [H3 (1–20) with K4me0, H3K4me3 or H3K9me3] to determine the optimal reader domain concentration for full peptide library studies (Fig. 3a–h; Additional file 4: Table S3 and Additional file 5: Table S4). […]
# (§9) The dCypher peptide screen assay was performed as previously described. […] Plates were incubated at 23 °C in subdued lighting for 60 min and AlphaLISA signal measured on a PerkinElmer 2104 EnVision (680 nm laser excitation, 570 nm emission filter ± 50 nm bandwidth). […]
# TRIM66 (PB) = assay: dCypher AlphaScreen Phase A (reader titration); settings: 100 nM peptide, 23 °C, n = 2
# Protocol: as §7, §8, §9
# PHRF1 (RP) = assay: dCypher AlphaScreen Phase A (reader titration); settings: 100 nM peptide, 23 °C, n = 2
# Protocol: as §7, §8, §9
substance,measurement,setting,value
H3 (1-20): unmodified H3 N-terminal peptide (1–20),binding in peptide pulldown,KDM5B (PHD1),reads H3K4me0
H3K4me1: H3 1-20 [Peptide H3K4me1],binding,DIDO1,also identified interaction of these domains with the H3K4me1 peptide
same,binding,MLL5,also identified interaction of these domains with the H3K4me1 peptide
H3K4me3: H3 1-20 [Peptide H3K4me3],binding,KDM7A,reader of H3K4me3
same,binding in peptide pulldown,KDM7A PHD finger,binds H3K4me3
H3K9me3: H3 1-20 [Peptide H3K9me3],binding,DPF2 (PPC2W2),ability to bind to the peptides containing H3K9me3
same,relative binding over a range of protein concentration,CHD4 (PPCC),stronger interaction with H3K9me3 compared with the unmodified peptide
same,relative binding over a range of protein concentration,TRIM66 (PB),stronger interaction with H3K9me3 compared with the unmodified peptide
same,binding preference at low versus high protein concentrations,PHRF1 (RP),distinct binding preference for the H3K9me3 peptide over the H3K4me0 peptide
